Experimental data from patent US20060014737A1, “Methods of treatment of amyloidosis using bi-aryl aspartyl protease inhibitors” (priority 2004, published 2006).
Values joined by “and” are separate entries in the source; they are usually repeats but may differ in a detail not shown here. Equal values may be shown once.

Tests used:
[1] = test system: catE versus beta-secretase (BACE); test: Selectivity for BACE versus catE (ratio of IC50 values); format: biochemical; settings: each value an average of four runs; multiple values = more than one experiment
Protocol: (§1) Investigation of potential beta-secretase inhibitors produced compounds with increased selectivity for beta-secretase over other aspartyl proteases such as cathepsin D (catD), cathepsin E (catE), HIV protease, and renin. Selectivity was calculated as a ratio of inhibition (IC50) values in which the inhibition of beta-secretase was compared to the inhibition of other aspartyl proteases. […] Alternatively, a compound is selective when its binding affinity is greater for its desired target (e.g., beta-secretase) versus a secondary target (e.g., catD). Accordingly, methods of treatment include administering selective compounds of formula (I) having a lower IC50 value for inhibiting beta-secretase, or greater binding affinity for beta-secretase, than for other aspartyl proteases such as catD, catE, HIV protease, or renin. A selective compound is also capable of producing a higher ratio of desired effects to adverse effects, resulting in a safer method of treatment.
The compounds of formula (I) can be selective for beta-secretase versus catE. […] Selectivity is reported as the ratio of IC50(catE):IC50(BACE).
(§2) In the following examples, each value is an average of four experimental runs and multiple values for one compound indicate that more than one experiment was conducted.

A-beta = test: Efficacy of compounds to inhibit A-beta concentration; format: in vivo, rat; settings: % inhibition of A-beta vs vehicle control
Protocol: Efficacious compounds of the present invention are those able to decrease the amount of A-beta produced compared to a control, where beta-secretase mediated cleavage is observed and measured in the absence of the compounds. Detection of efficacy can be by analysis of A-beta levels, for example, by immunoassay, fluorometric or chromogenic assay, HPLC, or other means of detection. The efficacy of the compounds of formula (I) was determined as a percentage inhibition corresponding to A-beta concentrations for tissue treated and untreated with a compound of formula (I).
The invention encompasses compounds of formula (I) that are efficacious. Efficacy is calculated as a percentage of concentrations as follows: Efficacy=(1−(total A-beta in dose group/total A-beta in vehicle control))*100% wherein the “total A-beta in dose group” equals the concentration of A-beta in the tissue, (e.g., rat brain) treated with the compound, and the “total A-beta in vehicle control” equals the concentration of A-beta in the tissue, yielding a % inhibition of A-beta production. Statistical significance is determined by p-value <0.05 using the Mann Whitney t-test. See, for example, Dovey et al., J. Neurochemistry, 2001, 76:173-181.

[2] = test system: catD versus beta-secretase (BACE); test: Selectivity for BACE versus catD (ratio of IC50 values); format: biochemical; settings: each value an average of four runs; multiple values = more than one experiment
Protocol: as §1
The compounds of formula (I) can be selective for beta-secretase versus catD. […] Selectivity is reported as the ratio of IC50(catD):IC50(BACE).
as §2

SMILES	Selectivity IC50(catD)/IC50(BACE) [2]	further results
CC(=O)NC(Cc1cc(F)cc(F)c1)C(O)CNCc1cc(CC(C)(C)C)ccc1-n1cnc(CO)c1 (centres unmarked) [Example 41.9, N-(1-(3,5-difluorophenyl)-3-hydroxy-4-(2-(4-(hydroxymethyl)-1H-imidazol-1-yl)-5-neopentylbenzylamino)butan-2-yl)acetamide]	–	Selectivity IC50(catE)/IC50(BACE) [1]: 1.2
CC(=O)NC(Cc1cc(F)cc(F)c1)C(O)CNCc1cc(CC(C)(C)C)ccc1-n1ccnc1 (centres unmarked) [Example 41.1, N-{1-(3,5-Difluoro-benzyl)-3-[5-(2,2-dimethyl-propyl)-2-imidazol-1-yl-benzylamino]-2-hydroxy-propyl}-acetamide]	–	Efficacy (% Inhibition, 100 mg/kg) cortex (A-beta; cortex): 15%; Efficacy (% Inhibition, 100 mg/kg) plasma (A-beta; plasma): 47%
CC(=O)NC(Cc1cc(F)cc(F)c1)C(O)CNCc1cc(CC(C)(C)C)ccc1-n1cnc2ccccc21 (centres unmarked) [Example 41.5, N-[3-[2-Benzoimidazol-1-yl-5-(2,2-dimethyl-propyl)-benzylamino]-1-(3,5-difluoro-benzyl)-2-hydroxy-propyl]-acetamide]	3.6 and 3.0	–
CC(=O)NC(Cc1cc(F)cc(F)c1)C(O)CNCc1cc(CC(C)(C)C)ccc1-n1cnc(CO)c1 (centres unmarked) [Example 41.3, N-(1-(3,5-difluorophenyl)-3-hydroxy-4-(2-(4-(hydroxymethyl)-1H-imidazol-1-yl)-5-neopentylbenzylamino)butan-2-yl)acetamide]	1.6	–
CC(=O)NC(Cc1cc(F)cc(F)c1)C(O)CNCc1cc(CC(C)(C)C)ccc1-n1cnc(C)c1 (centres unmarked) [Example 41.4, N-{1-(3,5-Difluoro-benzyl)-3-[5-(2,2-dimethyl-propyl)-2-(4-methyl-imidazol-1-yl)-benzylamino]-2-hydroxy-propyl}-acetamide]	1.7	–
CC(=O)NC(Cc1cc(F)cc(F)c1)C(O)CNCc1cc(CC(C)(C)C)ccc1-n1nccn1 (centres unmarked) [Example 41.11, N-(1-(3,5-difluorophenyl)-3-hydroxy-4-(5-neopentyl-2-(2H-1,2,3-triazol-2-yl)benzylamino)butan-2-yl)acetamide]	–	Selectivity IC50(catE)/IC50(BACE) [1]: 1.4
CC(=O)NC(Cc1cc(F)cc(F)c1)C(O)CNCc1cc(CC(C)(C)C)ccc1-n1nccn1 (centres unmarked) [Example 41.7, N-(1-(3,5-difluorophenyl)-3-hydroxy-4-(5-neopentyl-2-(2H-1,2,3-triazol-2-yl)benzylamino)butan-2-yl)acetamide]	>33.1	–
